Measurements: patent US6399570B1, “Antimicrobial/endotoxin neutralizing polypeptide” (priority 1999, dated 2002)

Experiments:
E. coli 0111 = experiment: Antimicrobial assay for LF polypeptides (CFU after 6 h); type: cell-based
Description: The antimicrobial activity of the catheptic polypeptide was measured against a clinical isolate, E. coli 0111. […] The 6 kDa catheptic fragment of LF is therefore at least as potent as twelve other natural antimicrobial polypeptides (H. G. Boman, J. Marsh, and J. A. Goode, Eds., Antimicrobial Peptides, (John Wiley & Sons Ltd., New York, N.Y., 1994)), and can function as a bactericidal agent. […] At 100 μM polypeptide, the number of viable bacteria was more than 1,000-fold greater in the cultures treated with the pepsinolytic versus cathepsinolytic fragment (FIG. 1). The basis for this difference in potency may be related to the additional, internal, pepsin cleavages which occur between the two disulfide bridges in the 6 kDa domain (Mann et al., J. Biol. Chem. 269: 23661-7 (1994); Bellamy et al., Biochim. Biophys. Acta 1121: 130-6 (1992)).
Antimicrobial assay for LF polypeptides. Cultures of E. coli 0111 (American Type Culture Collection #43887) were grown at 37° C. in 1% bactopeptone (BP) (Difco) in Dulbecco's phosphate buffered saline (dPBS) (Mediatech) with aeration by shaking (225 rpm). overnight cultures were diluted 8,000-fold in 2×concentrated BP/dPBS and mixed with an equal volume of sterile endotoxin-free distilled water containing serial dilutions of the polypeptide to be tested. The final assay volume was […] in a 12 mm×75 mm polypropylene tube (Falcon) with an ultimate dilution of the overnight cultures of 1:16,000 to yield an original inoculum of ˜1-2×10^4 CFU/ml. The final assay medium was physiological in ionic strength, 1% bactopeptone in 1×Dulbecco's phosphate buffered saline. Cultures were grown for 6 h at 37° C. with aeration as above and then cell density determined by measuring CFU/ml for each assay culture tube. Serial dilutions of each assay tube were plated on Luria Broth bactoagar and incubated for 24 h at 37° C. prior to counting colonies. All assays were done in triplicate and the standard deviation calculated for each concentration of inhibitor. Culture density at the beginning and end of the 6 h growth period was also determined from triplicate cultures lacking any polypeptide inhibitors. Untreated cultures typically grew to 1-2×10^8 CFU/ml in 6 h under these assay conditions.

Lipid A = experiment: Limulus ELISA, ENC50 against Lipid A; type: biochemical, E. coli K12
Description: (§1) The peptide-mediated inhibition of endotoxin-induced Limulus amebocyte lysate (LAL) coagulation was measured with a sensitive LAL assay (Zhang et al., J. Clin. Microbiol. 32: 416-422 (1994)). Limulus ELISA is an endotoxin assay based on activation of the LAL coagulation by endotoxin and detection of the generated peptide-C immunoreactivity with an ELISA using a monoclonal antibody to the polypeptide. Endotoxin was defined to be neutralized when it lost its ability to activate the LAL enzymes. The 50% endotoxin-neutralizing concentration (ENC50) reflects the potency of an anti-endotoxin agent; a low ENC50 indicates high potency. Table 2 lists the determined ENC50 value of each anti-endotoxin agent against lipid A and four different types of LPS. The potency of each anti-endotoxin agent varied depending on the type of endotoxin. […] The only difference between the sequence of LF-33 and LF-27 is that LF-27 lacks the first six residues (GRRRRS) at the N-terminus of LF-33. Remarkably, this deletion led to dramatic loss of the endotoxin-neutralizing capacity of the polypeptide in this assay. Binding of serum proteins to endotoxin neutralizes the endotoxin activity in this assay by preventing endotoxin from activating LAL (Emancipator et al., Infect. Immun. 60: 596-601 (1992)).
(§2) LPS. […] LPS (purity >99%) from Neisseria meningitidis was prepared from the group B strain #6275 and its potency was 25 EU/ng. […] The potency of the above endotoxin was determined with the Limulus enzyme-linked immunosorbent assay (ELISA, 43) in comparison with US Pharmacopeia reference standard endotoxin EC-5.
(§3) Briefly, 25 μl endotoxin solution (200 EU/ml) was mixed with an equal volume of test materials in a series of two-fold dilution in 0.15 M NaCl in a sterile 96-well tissue culture plate (Nunc A/S, Roskilde, Denmark), and incubated at 37° C. for 1 h in a dry-air incubator. […] The endotoxin activity was then quantified with the use of Limulus ELISA (Zhang et al., J. Clin. Microbiol. 32: 416-422 (1994)). […] The high sensitivity of the assay allowed for very low levels of the endotoxin activity to be detected. […]

E. coli LPS = experiment: Limulus ELISA, ENC50 against E. coli LPS; type: biochemical, Escherichia coli O113:H10
Description: as §1, §2, §3

N. min. LPS = experiment: Limulus ELISA, ENC50 against N. min. LPS; type: biochemical, Neisseria meningitidis; settings: endotoxin 200 EU/ml; mean +/− SD
Description: as §1, §2, §3

S. abortus LPS = experiment: Limulus ELISA, ENC50 against S. abortus LPS; type: biochemical, Salmonella abortus equi; settings: endotoxin 200 EU/ml; mean +/− SD
Description: as §1, §2, §3

[1] = endotoxin 200 EU/ml, mean +/− SD

Compound | reduction in cell growth (E. coli 0111; 100 μM polypeptide) | number of viable CFUs (E. coli 0111; 100 μM polypeptide, original inoculum 2.14×10^4 CFU/ml) | minimum inhibitory concentration (MIC) (E. coli 0111; E. coli 0111, physiological ionic strength, 6 h, CFU) [µM] | potency against bacteria relative to the fragment liberated by pepsin (E. coli 0111; from MICs) [fold] | fold less potent than LF-33 at neutralizing lipid A (Lipid A) | IC50 (Lipid A; [1]) [µM] | fold less potent than LF-33 at neutralizing E. coli LPS (E. coli LPS) | IC50 (E. coli LPS; [1]) [µM] | ENC50 against N. min. LPS (N. min. LPS) | IC50 (N. min. LPS) [µM] | ENC50 against S. abortus LPS (S. abortus LPS) | IC50 (S. abortus LPS) [µM]
6 kDa polypeptide: 6 kDa fragment produced by cathepsin D digestion of human LF, amino acids 1-49 of SEQ ID NO: 2 (GRRRRSVQWCAVSQPEATKCFQWQRNMRKVRGPPVSCIKRDSPIQCIQA; listed as Homo sapiens) | greater than 10,000 fold | 8.8×10^3 CFU/ml | 1 to 5 | ~10 |  |  |  |  |  |  |  | 
CSCC[C@H](NC(=O)[C@H](CC(N)=O)NC(=O)[C@H](CCCNC(=N)N)NC(=O)[C@H](CCC(N)=O)NC(=O)[C@H](Cc1c[nH]c2ccccc12)NC(=O)[C@H](CCC(N)=O)NC(=O)[C@H](Cc1ccccc1)NC(=O)[C@H](CS)NC(=O)[C@H](CCCCN)NC(=O)[C@@H](NC(=O)[C@H](C)NC(=O)[C@H](CCC(=O)O)NC(=O)[C@@H]1CCCN1C(=O)[C@H](CCC(N)=O)NC(=O)[C@H](CO)NC(=O)[C@@H](NC(=O)[C@H](C)NC(=O)[C@H](CS)NC(=O)[C@H](Cc1c[nH]c2ccccc12)NC(=O)[C@H](CCC(N)=O)NC(=O)[C@@H](N)C(C)C)C(C)C)[C@@H](C)O)C(=O)N[C@@H](CCCNC(=N)N)C(=O)N[C@@H](CCCCN)C(=O)N[C@H](C(=O)N[C@@H](CCCNC(=N)N)C(=O)NCC(=O)N1CCC[C@H]1C(=O)O)C(C)C [LF-27] |  |  |  |  | approximately 10 fold | 0.63 | approximately 10 fold | 7.45 | no detectable activity | > 300 | no detectable activity | > 300
